Data reported in US20170165286A1, “COMPOSITIONS AND METHODS FOR TREATING DIABETES AND LIVER DISEASES” (Cempra Pharmaceuticals, Inc., priority 2014, published 2017).
“Also recorded” adds a separate entry of the source.

How the values were obtained:
[1] = tested on: liver mRNA expression levels; assay: STAM model: quantitative RT-PCR of liver; format: in vivo, mice
Protocol: (§1) NASH-HCC (STAM™) Model. C57BL/6 (15-day-pregnant female) mice are obtained from Charles River Laboratories Japan (Kanagawa, Japan). Male pups are selected for the study. NASH is induced in male mice by a single subcutaneous injection of 200 μg streptozotocin (STZ, Sigma-Aldrich, USA) solution 2 days after birth, followed by feeding a HFD (57 kcal % fat, cat#: HFD32, CLEA Japan, Japan) beginning at 4 weeks of age. At 5 weeks of age, mice are divided into a control group and one or more treated group (generally 8 mice per group). Animals are sacrificed at 9 weeks of age, and biochemical, histological, and gene expression analyses are performed.
(§2) During weeks 5-9 (starting at day 35±2), test compound is administered (generally orally) at various doses diluted to 10 mL/kg and according to various dosing protocols to treatment groups (8 mice each) while a second group (8 mice) is administered vehicle only. Animals are sacrificed at 9 weeks.
(§3) Illustrative dose response test groups. Group 1-Normal. Eight normal mice are fed with a normal diet ad libitum without any treatment until 9 weeks of age. Group 2-Vehicle. Eight NASH mice are orally administered vehicle (0.5% w/v methylcellulose+0.2% Tween®80) in a volume of 10 mL/kg twice daily from 5 to 9 week of age. Group 3-solithromycin 5 mg/kg. Eight NASH mice are orally administered vehicle supplemented with solithromycin at a dose of 5 mg/kg in the morning and the vehicle in the evening (5 mg/kg/day) from 5 to 9 weeks of age. Group 4-solithromycin 10 mg/kg. Eight NASH mice are orally administered vehicle supplemented with solithromycin at a dose of 10 mg/kg twice daily (20 mg/kg/day) from 5 to 9 weeks of age. Group 5-solithromycin 25 mg/kg. Eight NASH mice are orally administered vehicle supplemented with solithromycin at a dose of 25 mg/kg twice daily (50 mg/kg/day) from 5 to 9 weeks of age. Group 6-solithromycin 50 mg/kg. Eight NASH mice are orally administered vehicle supplemented with solithromycin at a dose of 50 mg/kg once daily (50 mg/kg/day) from 5 to 9 weeks of age.
Quantitative RT-PCR. Total RNA is extracted from liver samples using RNAiso (Takara Bio, Japan) according to the manufacturer's instructions. One μg of RNA is reverse-transcribed using a reaction mixture containing 4.4 mM MgCl2 (Roche, Switzerland), 40 U RNase inhibitor (Toyobo, Japan), 0.5 mM dNTP (Promega, USA), 6.28 μM random hexamer (Promega), 5× first strand buffer (Promega), 10 mM dithiothreitol (Invitrogen) and 200 U MMLV-RT (Invitrogen) in a final volume of 20 μL. The reaction is carried out for 1 hour at 37° C., followed by 5 minutes at 99° C. Real-time PCR is performed using real-time PCR DICE and SYBR premix Taq (Takara Bio). To calculate the relative mRNA expression level, the expression of each gene is normalized to that of reference gene 36B4 (gene symbol: Rplp0). PCR-primer sets are described in copending U.S. provisional application No. 62/086,911, the disclosure of which is incorporated herein by reference.

[2] = tested on: STAM mice; assay: STAM model: liver immunohistochemistry (F4/80, Gr-1, CK-18); format: in vivo; conditions: for F4/80-positive area (%) a measure of macrophage density: STAM mice liver
Protocol: as §1, §2
For immunohistochemistry (a measure of inflammation), sections are cut from frozen liver tissues embedded in Tissue-Tek O.C.T. compound and fixed in acetone. Endogenous peroxidase activity is blocked using 0.03% H2O2 for 5 minutes, followed by incubation with Block Ace (Dainippon Sumitomo Pharma, Japan) for 10 minutes. The sections were incubated with a 200-fold dilution of anti-F4/80 antibody (BMA Biomedicals, Switzerland), a 50-fold dilution of anti-CK-18 antibody (LifeSpan BioSciences, USA) or anti-Gr-1 antibody (culture supernatant) over night at 4° C. F4/80 is a marker for macrophage and Kupffer cells in the liver; CK-18 antibody measures the cytoskeleton in damaged hepatocytes; and anti-Gr-1 antibody measures the neutrophil response. After incubation with secondary antibody (HRP-Goat anti-rat antibody, Invitrogen, USA), enzyme-substrate reactions are performed using 3, 3′-diaminobenzidine/H2O2 solution (Nichirei, Japan).
For quantitative analysis of fibrosis area, bright field images of Sirius red-stained sections are captured around the central vein using a digital camera (DFC280; Leica, Germany) at 200-fold magnification, and the positive areas in 5 fields/section are measured using ImageJ software (National Institute of Health, USA). For quantitative analysis of inflammation area, bright field images of F4/80-immunostained sections are captured around the central vein using a digital camera (DFC280; Leica, Germany) at 200-fold magnification, and the positive areas in 5 fields/section are measured using ImageJ software (National Institute of Health, USA).
as §3

[3] = STAM mice liver, 5 mg/kg, listed as SOLI
[4] = STAM mice liver, 10 mg/kg, listed as SOLI
[5] = STAM mice liver, 25 mg/kg, listed as SOLI

## CC[C@H]1OC(=O)[C@@](C)(F)C(=O)[C@H](C)[C@@H](O[C@@H]2O[C@H](C)C[C@H](N(C)C)[C@H]2O)[C@](C)(OC)C[C@@H](C)C(=O)[C@H](C)[C@H]2N(CCCCn3cc(-c4cccc(N)c4)nn3)C(=O)O[C@]12C [solithromycin]
[1]; STAM mice liver, 5 mg/kg
  Col1a2/36B4 relative mRNA expression: 3.6 ± 1.7
  FBPase/36B4 relative mRNA expression: 1.2 ± 0.2
  G6pc/36B4 relative mRNA expression: 3.0 ± 0.7
  Gck/36B4 relative mRNA expression: 0.5 ± 0.2
  Glut 2/36B4 relative mRNA expression: 0.8 ± 0.1
  MCP-1/36B4 relative mRNA expression: no statistically significant differences
  MMP-9/36B4 relative mRNA expression: no statistically significant differences
  Pck1/36B4 relative mRNA expression: 1.5 ± 0.1
  TGF-β/36B4 relative mRNA expression: 2.1 ± 0.4
  TNF-α/36B4 relative mRNA expression: 3.1 ± 1.2
  Timp-1/36B4 relative mRNA expression: 16.0 ± 15.7
  α-SMA/36B4 relative mRNA expression: 3.8 ± 1.9
[1]; [3]
  MCP-1/36B4 relative mRNA expression: 7.2 ± 4.0
  MMP-9/36B4 relative mRNA expression: 2.9 ± 0.8
[1]; STAM mice liver, 10 mg/kg
  Col1a2/36B4 relative mRNA expression: 2.8 ± 1.0
  FBPase/36B4 relative mRNA expression: 1.2 ± 0.2
  G6pc/36B4 relative mRNA expression: 2.4 ± 0.5
  Gck/36B4 relative mRNA expression: 0.4 ± 0.2
  Glut 2/36B4 relative mRNA expression: tended to down-regulated
  MCP-1/36B4 relative mRNA expression: no statistically significant differences
  MMP-9/36B4 relative mRNA expression: no statistically significant differences
  Pck1/36B4 relative mRNA expression: 1.5 ± 0.4
  TGF-β/36B4 relative mRNA expression: 1.8 ± 0.4
  TNF-α/36B4 relative mRNA expression: 3.0 ± 0.7
  Timp-1/36B4 relative mRNA expression: 11.9 ± 6.8
  α-SMA/36B4 relative mRNA expression: 3.7 ± 1.0
[1]; [4]
  Glut 2/36B4 relative mRNA expression: 0.8 ± 0.1
  MCP-1/36B4 relative mRNA expression: 5.2 ± 1.9
  MMP-9/36B4 relative mRNA expression: 3.0 ± 1.1
[1]; STAM mice liver, 25 mg/kg
  Col1a2/36B4 relative mRNA expression: 2.9 ± 1.2
  FBPase/36B4 relative mRNA expression: Statistically significant reduced
  G6pc/36B4 relative mRNA expression: Statistically significant reduced
  Gck/36B4 relative mRNA expression: 0.6 ± 0.4
  Glut 2/36B4 relative mRNA expression: 0.9 ± 0.1
  MCP-1/36B4 relative mRNA expression: no statistically significant differences
  MMP-9/36B4 relative mRNA expression: no statistically significant differences
  Pck1/36B4 relative mRNA expression: 1.3 ± 0.6
  TGF-β/36B4 relative mRNA expression: 1.8 ± 0.5
  TNF-α/36B4 relative mRNA expression: 3.4 ± 1.3
  Timp-1/36B4 relative mRNA expression: 11.0 ± 8.6
  α-SMA/36B4 relative mRNA expression: 3.3 ± 1.2
[1]; [5]
  FBPase/36B4 relative mRNA expression: 1.0 ± 0.2
  G6pc/36B4 relative mRNA expression: 1.9 ± 0.7
  MCP-1/36B4 relative mRNA expression: 4.9 ± 1.9
  MMP-9/36B4 relative mRNA expression: 2.6 ± 0.5
[1]; STAM mice liver, all doses
  FBPase mRNA expression levels compared to vehicle group: significantly down-regulated
  G6pc mRNA expression levels compared to vehicle group: significantly down-regulated
[1]; STAM mice liver, any doses
  Collagen Type 1 mRNA expression levels compared to vehicle group: no significant differences
  Gck mRNA expression levels compared to vehicle group: no significant differences
  Pck1 mRNA expression levels compared to vehicle group: no significant differences
  TGF-β mRNA expression levels compared to vehicle group: no significant differences
  TIMP-1 mRNA expression levels compared to vehicle group: no significant differences
  TNF-α mRNA expression levels compared to vehicle group: no significant differences
  α-SMA mRNA expression levels compared to vehicle group: no significant differences
[1]; STAM mice liver, solithromycin groups other than 10 mg/kg
  Glut 2 mRNA expression levels compared to vehicle group: no significant differences
[1]; STAM mice, 50 mg/kg q.d., normalized vehicle 1.00±0.34
  MMP-9 mRNA expression levels in the liver: 0.59±0.25
[1]; STAM mice, 50 mg/kg q.d., normalized vehicle 1.00±0.42
  MCP-1 mRNA expression levels in the liver: 0.64±0.14
[2]; 5 mg/kg
  F4/80-positive area (%) a measure of macrophage density: 10.83 ± 1.38%
[2]; 10 mg/kg
  F4/80-positive area (%) a measure of macrophage density: 9.33 ± 1.31%
[2]; 25 mg/kg
  F4/80-positive area (%) a measure of macrophage density: 10.63 ± 2.11%
[2]; STAM mice, Groups 3-6
  Area of F4/80-positive macrophages compared to vehicle group: no significant differences
[2]; STAM mice, all doses
  Gr-1 positive cells (neutrophil infiltration) in liver compared to vehicle group: decreased; also recorded: reduced
[2]; STAM mice, any doses
  CK-18 immunostaining compared to vehicle group: no obvious changes
